Measured values: patent US20240025884A1 (Dong-A ST Co., Ltd., priority 2022, published 2024)

Biological target: GCN2 (Homo sapiens (Human), UniProt Q9P2K8)
Experiment: GCN2 Biochemical Assay (TR-FRET, GFP-eIF2S1 substrate phosphorylation)
Conditions: read-out: IC50 (GCN2 Inhibitory Activity)
How it was run: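 TR-FRET readout (Ex 340, Em 490/520 nm) after 2–3 h with Tb-labelled phospho-eIF2S1 antibody in stop mix, following a 70 min room-temperature kinase step. Reaction: in-house GCN2, GFP-eIF2S1, ATP, tRNA in Tris pH 7.5 (2× stocks 1.6 nM, 50 nM, 0.2 mM); compounds tested at 10 concentrations, with a phospho-substrate artifact counter-plate.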

Chain of GCN2 (Q9P2K8 whole entry): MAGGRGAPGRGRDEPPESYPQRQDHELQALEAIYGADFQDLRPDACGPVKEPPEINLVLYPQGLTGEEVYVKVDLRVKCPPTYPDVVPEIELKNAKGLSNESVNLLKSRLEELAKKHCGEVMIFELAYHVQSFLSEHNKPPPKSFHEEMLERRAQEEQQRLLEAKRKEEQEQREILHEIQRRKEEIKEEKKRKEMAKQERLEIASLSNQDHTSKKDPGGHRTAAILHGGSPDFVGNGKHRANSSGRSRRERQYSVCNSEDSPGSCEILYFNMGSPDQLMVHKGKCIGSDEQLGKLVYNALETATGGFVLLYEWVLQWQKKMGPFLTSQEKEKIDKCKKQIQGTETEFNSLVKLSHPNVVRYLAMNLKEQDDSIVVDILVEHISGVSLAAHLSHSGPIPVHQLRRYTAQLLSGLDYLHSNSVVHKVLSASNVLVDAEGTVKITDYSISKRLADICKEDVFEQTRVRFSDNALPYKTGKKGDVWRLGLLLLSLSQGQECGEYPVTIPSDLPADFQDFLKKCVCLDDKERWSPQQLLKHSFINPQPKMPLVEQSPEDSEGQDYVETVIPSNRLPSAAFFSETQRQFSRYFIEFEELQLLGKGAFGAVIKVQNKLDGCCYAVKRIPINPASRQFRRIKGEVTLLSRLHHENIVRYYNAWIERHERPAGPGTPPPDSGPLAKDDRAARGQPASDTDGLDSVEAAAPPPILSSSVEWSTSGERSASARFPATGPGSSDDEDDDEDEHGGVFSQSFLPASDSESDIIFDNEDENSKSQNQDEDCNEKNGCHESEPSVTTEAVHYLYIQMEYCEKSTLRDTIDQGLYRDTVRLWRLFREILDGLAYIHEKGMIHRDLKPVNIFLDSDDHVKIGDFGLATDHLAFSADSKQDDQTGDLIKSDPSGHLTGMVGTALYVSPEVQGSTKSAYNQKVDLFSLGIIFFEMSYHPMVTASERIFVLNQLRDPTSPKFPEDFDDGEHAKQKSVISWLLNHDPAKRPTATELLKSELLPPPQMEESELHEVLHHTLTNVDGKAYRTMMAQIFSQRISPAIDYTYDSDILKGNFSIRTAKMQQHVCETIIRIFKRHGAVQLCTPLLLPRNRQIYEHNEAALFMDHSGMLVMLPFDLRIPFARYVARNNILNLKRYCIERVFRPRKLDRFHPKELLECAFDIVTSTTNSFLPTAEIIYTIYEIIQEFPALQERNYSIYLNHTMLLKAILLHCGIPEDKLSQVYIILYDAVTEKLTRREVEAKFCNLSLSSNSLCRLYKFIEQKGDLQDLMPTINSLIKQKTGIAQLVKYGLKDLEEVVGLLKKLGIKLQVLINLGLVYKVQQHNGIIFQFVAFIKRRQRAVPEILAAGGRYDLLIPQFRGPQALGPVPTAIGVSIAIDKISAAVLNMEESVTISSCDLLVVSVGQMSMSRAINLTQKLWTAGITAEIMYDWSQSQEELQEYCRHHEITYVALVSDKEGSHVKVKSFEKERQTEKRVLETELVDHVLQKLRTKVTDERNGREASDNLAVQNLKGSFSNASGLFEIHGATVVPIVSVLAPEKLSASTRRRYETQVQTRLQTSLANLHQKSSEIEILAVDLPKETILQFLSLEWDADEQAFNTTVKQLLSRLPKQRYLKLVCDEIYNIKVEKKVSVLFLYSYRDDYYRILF

Row | Structure (SMILES) | IC50
1 | Cc1cnc(Nc2cc(C)n(C)n2)nc1-c1c[nH]c2c(NC(=O)CN3CC[C@H](Oc4ccc(F)c(F)c4)C3)cccc12 [Example 84, (S)-2-(3-(3,4-difluorophenoxy)pyrrolidin-1-yl)-N-(3-(2-((1,5-dimethyl-1H-pyrazol-3-yl)amino)-5-methylpyrimidin-4-yl)-1H-indol-7-yl)acetamide] | 100 to 1000 nM
2 | Cc1cnc(Nc2cc(C)n(C)n2)nc1-c1c[nH]c2c(NC(=O)CN3CC[C@H](Oc4ccc(F)cc4Cl)C3)cccc12 [Example 85] | 100 to 1000 nM
3 | Cc1cnc(Nc2cc(C)n(C)n2)nc1-c1c[nH]c2c(NC(=O)CN3CC[C@H](Oc4cccc(N)c4)C3)cccc12 [Example 89] | 100 to 1000 nM
4 | Cc1cnc(Nc2cc(C)n(C)n2)nc1-c1c[nH]c2c(NC(=O)CN3CC[C@H](Oc4ccnc(N)c4)C3)cccc12 [Example 90] | < 10 nM
5 | Cc1cnc(Nc2cc(C)n(C)n2)nc1-c1c[nH]c2c(NC(=O)CN3CC[C@H](Oc4ccnc(Cl)c4)C3)cccc12 [Example 91] | 10 to 100 nM
6 | Cc1cnc(Nc2cc(C)n(C)n2)nc1-c1c[nH]c2c(NC(=O)CN3CC[C@H](Oc4cncc(N)n4)C3)cccc12 [Example 92] | < 10 nM
7 | Cc1ncc(Br)c(O[C@H]2CCN(CC(=O)Nc3cccc4c(-c5nc(Nc6cc(C)n(C)n6)ncc5C)c[nH]c34)C2)n1 [Example 97, (S)-2-(3-((5-bromo-2-methylpyrimidin-4-yl)oxy)pyrrolidin-1-yl)-N-(3-(2-((1,5-dimethyl-1H-pyrazol-3-yl)amino)-5-methylpyrimidin-4-yl)-1H-indol-7-yl)acetamide] | 10 to 100 nM
8 | Cc1cnc(Nc2cc(C)n(C)n2)nc1-c1c[nH]c2c(NC(=O)CN3CC[C@H](Oc4cc(-c5cc(Cl)ccc5F)nc(N)n4)C3)cccc12 [Example 98, (S)-2-(3-((2-amino-6-(5-chloro-2-fluorophenyl)pyrimidin-4-yl)oxy)pyrrolidin-1-yl)-N-(3-(2-((1,5-dimethyl-1H-pyrazol-3-yl)amino)-5-methylpyrimidin-4-yl)-1H-indol-7-yl)acetamide] | 100 to 1000 nM
9 | Cc1cnc(Nc2cc(C)n(C)n2)nc1-c1c[nH]c2c(NC(=O)CN3CC[C@H](Oc4cc(C(F)(F)F)nc(N)n4)C3)cccc12 [Example 99, (S)-2-(3-((2-amino-6-(trifluoromethyl)pyrimidin-4-yl)oxy)pyrrolidin-1-yl)-N-(3-(2-((1,5-dimethyl-1H-pyrazol-3-yl)amino)-5-methylpyrimidin-4-yl)-1H-indol-7-yl)acetamide] | 10 to 100 nM
10 | Cc1cnc(Nc2cc(C)n(C)n2)nc1-c1c[nH]c2c(NC(=O)CN3CC[C@H](Oc4ccc(C(C)(C)c5ccccc5)cc4)C3)cccc12 [Example 101, (S)-N-(3-(2-((1,5-dimethyl-1H-pyrazol-3-yl)amino)-5-methylpyrimidin-4-yl)-1H-indol-7-yl)-2-(3-(4-(2-phenylpropan-2-yl)phenoxy)pyrrolidin-1-yl)acetamide] | > 1000 nM
11 | CCCCCc1cnc(O[C@H]2CCN(CC(=O)Nc3cccc4c(-c5nc(Nc6cc(C)n(C)n6)ncc5C)c[nH]c34)C2)nc1 [Example 102, (S)-N-(3-(2-((1,5-dimethyl-1H-pyrazol-3-yl)amino)-5-methylpyrimidin-4-yl)-1H-indol-7-yl)-2-(3-((5-pentylpyrimidin-2-yl)oxy)pyrrolidin-1-yl)acetamide] | 10 to 100 nM
12 | Cc1cnc(Nc2cc(C)n(C)n2)nc1-c1c[nH]c2c(NC(=O)CN3CC[C@H](Oc4ccc(CN5CCN(C)CC5)cc4)C3)cccc12 [Example 103, (S)-N-(3-(2-((1,5-dimethyl-1H-pyrazol-3-yl)amino)-5-methylpyrimidin-4-yl)-1H-indol-7-yl)-2-(3-(4-((4-methylpiperazin-1-yl)methyl)phenoxy)pyrrolidin-1-yl)acetamide] | 10 to 100 nM
13 | Cc1cnc(Nc2cc(C)n(C)n2)nc1-c1c[nH]c2c(NC(=O)CN3CC[C@H](Oc4ccnn4C)C3)cccc12 [Example 104, (S)-N-(3-(2-((1,5-dimethyl-1H-pyrazol-3-yl)amino)-5-methylpyrimidin-4-yl)-1H-indol-7-yl)-2-(3-((1-methyl-1H-pyrazol-5-yl)oxy)pyrrolidin-1-yl)acetamide] | < 10 nM
14 | Cc1cnc(Nc2cc(C)n(C)n2)nc1-c1c[nH]c2c(NC(=O)CN3CC[C@H](Oc4ccn(C)n4)C3)cccc12 [Example 105, (S)-N-(3-(2-((1,5-dimethyl-1H-pyrazol-3-yl)amino)-5-methylpyrimidin-4-yl)-1H-indol-7-yl)-2-(3-((1-methyl-1H-pyrazol-3-yl)oxy)pyrrolidin-1-yl)acetamide] | < 10 nM
15 | COC(=O)c1sc2ccccc2c1O[C@H]1CCN(CC(=O)Nc2cccc3c(-c4nc(Nc5cc(C)n(C)n5)ncc4C)c[nH]c23)C1 [Example 106, methyl (S)-3-((1-(2-((3-(2-((1,5-dimethyl-1H-pyrazol-3-yl)amino)-5-methylpyrimidin-4-yl)-1H-indol-7-yl)amino)-2-oxoethyl)pyrrolidin-3-yl)oxy)benzo[b]thiophene-2-carboxylate] | 100 to 1000 nM
16 | COC(=O)c1sccc1O[C@H]1CCN(CC(=O)Nc2cccc3c(-c4nc(Nc5cc(C)n(C)n5)ncc4C)c[nH]c23)C1 [Example 107, methyl (S)-3-((1-(2-((3-(2-((1,5-dimethyl-1H-pyrazol-3-yl)amino)-5-methylpyrimidin-4-yl)-1H-indol-7-yl)amino)-2-oxoethyl)pyrrolidin-3-yl)oxy)thiophene-2-carboxylate] | < 10 nM

Continued, values first:

Row | IC50 | Structure (SMILES)
17 | 100 to 1000 nM | Cc1cnc(Nc2cc(C)n(C)n2)nc1-c1c[nH]c2c(NC(=O)CN3CC[C@H](Oc4ccc(F)cc4)C3)cccc12 [Example 80, (S)-N-(3-(2-((1,5-dimethyl-1H-pyrazol-3-yl)amino)-5-methylpyrimidin-4-yl)-1H-indol-7-yl)-2-(3-(4-fluorophenoxy)pyrrolidin-1-yl)acetamide]
18 | 100 to 1000 nM | Cc1cnc(Nc2cc(C)n(C)n2)nc1-c1c[nH]c2c(NC(=O)CN3CC[C@H](Oc4cccc(F)c4)C3)cccc12 [Example 81, (S)-N-(3-(2-((1,5-dimethyl-1H-pyrazol-3-yl)amino)-5-methylpyrimidin-4-yl)-1H-indol-7-yl)-2-(3-(3-fluorophenoxy)pyrrolidin-1-yl)acetamide]
19 | 100 to 1000 nM | Cc1cnc(Nc2cc(C)n(C)n2)nc1-c1c[nH]c2c(NC(=O)CN3CC[C@H](Oc4ccc(Cl)cc4)C3)cccc12 [Example 82, (S)-2-(3-(4-chlorophenoxy)pyrrolidin-1-yl)-N-(3-(2-((1,5-dimethyl-1H-pyrazol-3-yl)amino)-5-methylpyrimidin-4-yl)-1H-indol-7-yl)acetamide]
20 | 10 to 100 nM | Cc1cnc(Nc2cc(C)n(C)n2)nc1-c1c[nH]c2c(NC(=O)CN3CC[C@H](Oc4ccc(F)cc4F)C3)cccc12 [Example 83, (S)-2-(3-(2,4-difluorophenoxy)pyrrolidin-1-yl)-N-(3-(2-((1,5-dimethyl-1H-pyrazol-3-yl)amino)-5-methylpyrimidin-4-yl)-1H-indol-7-yl)acetamide]
21 | 100 to 1000 nM | Cc1cnc(Nc2cc(C)n(C)n2)nc1-c1c[nH]c2c(NC(=O)CN3CC[C@H](Oc4cc(F)cc(F)c4)C3)cccc12 [Example 86]
22 | 10 to 100 nM | Cc1cnc(Nc2cc(C)n(C)n2)nc1-c1c[nH]c2c(NC(=O)CN3CC[C@H](Oc4ccc(F)c(N)c4)C3)cccc12 [Example 87, (S)-2-(3-(3-amino-4-fluorophenoxy)pyrrolidin-1-yl)-N-(3-(2-((1,5-dimethyl-1H-pyrazol-3-yl)amino)-5-methylpyrimidin-4-yl)-1H-indol-7-yl)acetamide]
23 | 100 to 1000 nM | CCN(CC)c1cccc(O[C@H]2CCN(CC(=O)Nc3cccc4c(-c5nc(Nc6cc(C)n(C)n6)ncc5C)c[nH]c34)C2)c1 [Example 88]
24 | 10 to 100 nM | Cc1cnc(Nc2cc(C)n(C)n2)nc1-c1c[nH]c2c(NC(=O)CN3CC[C@H](Oc4ncc(F)cn4)C3)cccc12 [Example 93]
25 | 10 to 100 nM | Cc1cnc(Nc2cc(C)n(C)n2)nc1-c1c[nH]c2c(NC(=O)CN3CC[C@H](Oc4ncnc(Cl)c4C)C3)cccc12 [Example 94, (S)-2-(3-((6-chloro-5-methylpyrimidin-4-yl)oxy)pyrrolidin-1-yl)-N-(3-(2-((1,5-dimethyl-1H-pyrazol-3-yl)amino)-5-methylpyrimidin-4-yl)-1H-indol-7-yl)acetamide]
26 | < 10 nM | Cc1cc(O[C@H]2CCN(CC(=O)Nc3cccc4c(-c5nc(Nc6cc(C)n(C)n6)ncc5C)c[nH]c34)C2)nc(N)n1 [Example 95, (S)-2-(3-((2-amino-6-methylpyrimidin-4-yl)oxy)pyrrolidin-1-yl)-N-(3-(2-((1,5-dimethyl-1H-pyrazol-3-yl)amino)-5-methylpyrimidin-4-yl)-1H-indol-7-yl)acetamide]
27 | 10 to 100 nM | Cc1cnc(Nc2cc(C)n(C)n2)nc1-c1c[nH]c2c(NC(=O)CN3CC[C@H](Oc4nc(Cl)ncc4N)C3)cccc12 [Example 96, (S)-2-(3-((5-amino-2-chloropyrimidin-4-yl)oxy)pyrrolidin-1-yl)-N-(3-(2-((1,5-dimethyl-1H-pyrazol-3-yl)amino)-5-methylpyrimidin-4-yl)-1H-indol-7-yl)acetamide]
28 | 100 to 1000 nM | Cc1cnc(Nc2cc(C)n(C)n2)nc1-c1c[nH]c2c(NC(=O)CN3CC[C@H](Oc4ccc(-c5ccccc5)cc4)C3)cccc12 [Example 100, (S)-2-(3-([1,1′-biphenyl]-4-yloxy)pyrrolidin-1-yl)-N-(3-(2-((1,5-dimethyl-1H-pyrazol-3-yl)amino)-5-methylpyrimidin-4-yl)-1H-indol-7-yl)acetamide]
29 | < 10 nM | Cc1cnc(Nc2cc(C)n(C)n2)nc1-c1c[nH]c2c(NC(=O)CN3CC[C@H](Oc4ccsc4C(=O)O)C3)cccc12 [Example 108, (S)-3-((1-(2-((3-(2-((1,5-dimethyl-1H-pyrazol-3-yl)amino)-5-methylpyrimidin-4-yl)-1H-indol-7-yl)amino)-2-oxoethyl)pyrrolidin-3-yl)oxy)thiophene-2-carboxylic acid]
